Test [1] deals with S. aureus (MRSA) -400. The experiment in a line: Anti-bacterial activity test 1: minimum growth inhibiting concentration (MIC). It is filed as cell-based. To be noted: Staphylococcus aureus, strain -400 (PRC series), read-out: Anti-bacterial activity against MRSA MIC. On the procedure:
(§1) Minimum growth inhibiting concentration (MIC) of the compound represented by the general formula (I) was determined against some typical MRSA strains.

Test [2] has as its system S. aureus (MRSA) -385. Described as above. The class given is cell-based. To be noted: Staphylococcus aureus, strain -385 (PRC series), read-out: Anti-bacterial activity against MRSA MIC. On the procedure:
as §1

Test [3] relates to S. aureus (MRSA) -390. Described as above. The class given is cell-based. The settings on record: Staphylococcus aureus, strain -390 (PRC series), read-out: Anti-bacterial activity against MRSA MIC. The protocol: as §1
The subject of test [4] is S. aureus (MRSA) -389. The test is described as above. It is filed as cell-based. To be noted: Staphylococcus aureus, strain -389 (PRC series), read-out: Anti-bacterial activity against MRSA MIC. The protocol: as §1
Test [5] concerns S. aureus (MRSA) PRC-376. Described as above. The class given is cell-based. The settings on record: Staphylococcus aureus, strain PRC-376, read-out: Anti-bacterial activity against MRSA MIC. The protocol: as §1
Test [6] concerns S. aureus (MRSA) -395. Described as above. The class given is cell-based. To be noted: Staphylococcus aureus, strain -395 (PRC series), read-out: Anti-bacterial activity against MRSA MIC. On the procedure:
as §1

Test [7] relates to S. aureus (MRSA) -381. The description is as above. The settings on record: Staphylococcus aureus, strain -381 (PRC series), read-out: Anti-bacterial activity against MRSA MIC. The class given is cell-based. The protocol: as §1
The test system of test [8] is methicillin (DMPPC) resistant Staphylococcus aureus TY-5548. The experiment in a line: Anti-bacterial activity test 2: viable cell count on processed cotton cloth. The class given is cell-based. The settings on record: stated for the test as a whole (TY-5548 and TY-5552). The protocol: A cotton cloth was subjected to anti-bacterial processing with the compound of the general formula (I). The processing was carried out by applying a solution containing 0.05% of the compound of the general formula (I) and 1% of an organic silicone (fiber finish, Miki Riken) on the cotton cloth with the padding method. A cotton cloth (30 cm x 40 cm) was padded so that the pick-up was 70%, dried with hot air at 110°C for 3 minutes and further cured at 170°C for 1 minute. The anti-bacterial effect of the cotton cloth subjected to the anti-bacterial processing was evaluated with methicillin (DMPPC) resistant Staphylococcus aureus by the following method. The strains were selected on the basis of their resistances, and TY-5548 was selected as a higher resistant strain and TY-5552 as a lower resistant strain.
A 0.2 g sample of the cotton cloth was weighed, placed in a screw capped 30 ml vial and sterilized under pressure. The test strains had been pre-cultured and diluted with nutrient broth for inoculation to 5 - 30 x 10⁵ cells/ml. This culture medium was uniformly inoculated at an amount of 200 µl with a micropipette to the sample cloth, which was then incubated in an incubator at 37°C for 18 hours. […] The colonies grown were counted to calculate the viable cells in the sample piece.

The test system of test [9] is methicillin resistant Staphylococcus aureus (TY-5548, higher resistant bacterium). Nature of the test: Anti-bacterial activity test 4: propagation under cup with dust adsorbing oil on agar plate. The settings on record: dust adsorbing oil incorporated with 0.1% of compound; 100 µl in cup; 4°C overnight, then 37°C for 24 hours. It is filed as cell-based. The protocol: Anti-MRSA activity was afforded to a dust adsorbing oil for a dust control mop as described below.
Only non-volatile ingredients were recovered from a dust adsorbing oil for a mop by spraying (manufactured by Yamazaki Sangyo), and incorporated with 0.1% of Compound (V).
A 200 µl of a suspension containing methicillin resistant Staphylococcus aureus (TY-5548, higher resistant bacterium) in a level of 1 x 10⁵ - 10⁴ cells/ml was smeared on a plate count agar, on which stainless steel cups having a diameter of 12 mm were placed to add 100 µl of the oil solution prepared above. The plate thus having inoculated the bacterium was left standing at 4°C overnight and then cultured at 37°C for 24 hours. The propagation of the bacterium under the cup was evaluated.

The test system of test [10] is TY-5548, higher resistant bacterium. Nature of the test: Anti-bacterial activity test 5: viable cell count on paint film. The settings on record: paint film with 0.1% of compound. It is filed as cell-based, Staphylococcus aureus. The text has this: The compound of the general formula (I) was blended with a paint on the assumption that the paint is used around the medical facilities like in the case of Anti-bacterial activity test 3.
With an oil paint (manufactured by Shinto Toryo) 0.1% of the compound of the general formula (I) was mixed, and an appropriate dilution with thinner was spread over a stainless steel plate having a size of 3 cm x 3 cm and air-dried. The sample on which the film had been formed was sterilized with an alcohol and dried. The sample plate was placed in a glass dish, inoculated with 200 µl of the inoculation medium in Anti-bacterial activity test 3 (TY-5548, higher resistant bacterium) over the surface of the film and incubated at 37°C for 18 hours. After the incubation, 20 ml of a sterile physiological saline buffer was added to the medium to disperse the viable cells into the medium, and then the viable cells on the test piece were calculated in the same manner as in Anti-bacterial activity test 2.

Converted amounts (≈) assume the structure as drawn.

As a reminder, the MIC is the lowest concentration found to suppress growth. On to `Clc1ccccc1C(Cn1ccnc1)OCc1ccccc1` (centres unmarked) [o-Cl, H, H, H, 1-[2-benzyloxy-2-(2-chlorophenyl)-ethyl]imidazole], for which the minimum inhibitory concentration (MIC) in [1] was determined as 50 µg/mL (≈ 160 µM); in test [2], 100 µg/mL (≈ 320 µM); in test [3], 100 µg/mL (≈ 320 µM); in test [4], 100 µg/mL (≈ 320 µM); in test [5], 100 µg/mL (≈ 320 µM); in test [6] it was 100 µg/mL (≈ 320 µM). Also, the minimum inhibitory concentration (MIC) in test [7] turned out to be 50 µg/mL (≈ 160 µM).
Turning to `Clc1ccccc1COC(Cn1ccnc1)c1ccccc1Cl` (centres unmarked) [o-Cl, H, o-Cl, H, 1-[2-(2-chlorobenzyloxy)-2-(2-chlorophenyl)-ethyl]imidazole], the minimum inhibitory concentration (MIC) was 25 µg/mL (≈ 72 µM) in [1]; 25 µg/mL (≈ 72 µM) in [2]; 25 µg/mL (≈ 72 µM) in test [3]; 50 µg/mL (≈ 144 µM) in test [4]; 25 µg/mL (≈ 72 µM) in test [5]; 25 µg/mL (≈ 72 µM) in test [6]. Besides, in [7], the MIC was determined as 25 µg/mL (≈ 72 µM).
Turning to `Clc1ccc(COC(Cn2ccnc2)c2ccccc2Cl)cc1` (centres unmarked) [o-Cl, H, p-Cl, H, 1-[2-(4-chlorobenzyloxy)-2-(2-chlorophenyl)-ethyl]imidazole], the “cell reducing rate of the inoculated cells” value in [8] and in test [10] was not below 99.9% throughout. Further, the “propagation of the bacterium under the cup” value in test [9] was “no propagation was observed”. Moreover, the MIC in test [1] is 12.5 µg/mL (≈ 36 µM); in test [2], 25 µg/mL (≈ 72 µM); in [3], 25 µg/mL (≈ 72 µM); in test [4], 25 µg/mL (≈ 72 µM); in test [5], 25 µg/mL (≈ 72 µM); in test [6] it was 25 µg/mL (≈ 72 µM). In addition, the MIC in test [7] worked out at 12.5 µg/mL (≈ 36 µM).
Consider `Clc1ccc(C(Cn2ccnc2)OCc2ccccc2Cl)cc1` (centres unmarked) [p-Cl, H, o-Cl, H, 1-[2-(2-chlorobenzyloxy)-2-(4-chlorophenyl)-ethyl]imidazole], for which the MIC in test [1] turned out to be 25 µg/mL (≈ 72 µM); in [2], 50 µg/mL (≈ 144 µM); in test [3], 50 µg/mL (≈ 144 µM); in test [4], 50 µg/mL (≈ 144 µM); in [5], 50 µg/mL (≈ 144 µM); in test [6], 50 µg/mL (≈ 144 µM). Further, the minimum inhibitory concentration (MIC) in test [7] worked out at 25 µg/mL (≈ 72 µM).
As to `Clc1ccc(COC(Cn2ccnc2)c2ccc(Cl)cc2)cc1` (centres unmarked) [p-Cl, H, p-Cl, H, 1-[2-(4-chlorobenzyloxy)-2-(4-chlorophenyl)-ethyl]imidazole], the minimal inhibitory concentration (MIC) in test [1] was found to be 25 µg/mL (≈ 72 µM); in test [2] it was 50 µg/mL (≈ 144 µM); in test [3], 50 µg/mL (≈ 144 µM); in test [4], 50 µg/mL (≈ 144 µM); in [5], 50 µg/mL (≈ 144 µM); in test [6], 50 µg/mL (≈ 144 µM). Besides, in test [7], the MIC was found to be 25 µg/mL (≈ 72 µM).
